Several values for one entry are separate records, joined by “and”; a condition that tells them apart may be missing. Equal entries are not always repeated.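 All cell lines were grown in 96-well plates and treated with compound for 48 hours. GI50 is the concentration that inhibits growth by half. TGI marks complete inhibition of growth.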

Some test systems named below: TK-10 renal; SW-620 colon; OVCAR-8 ovarian; SR leukemia; M14 melanoma; NCI-H226 lung; HOP-18 NSCLC; ACHN renal; CCRF-CEM leukemia; HOP-92 NSCLC; SNB-75 CNS; MCF7 breast; BT-549 breast; MDA-MB-231 breast; NCI/ADR-RES ovarian; DLD-1 colon.
Test in all cases: NCI anticancer screen, dose series, 48 h

Regarding `CC1(C)Cc2c(C#N)c(N)c3c(c2CO1)C(=O)OC3=O`, the TGI with TK-10 renal, in the test with SW-620 colon, in the test with OVCAR-8 ovarian, in the test with SR leukemia, with M14 melanoma and with NCI-H226 lung was greater than 100 µM throughout. The TGI with HOP-18 NSCLC, in the test on ACHN renal and in the test with CCRF-CEM leukemia was greater than 100 µM throughout.
For `O=C(N/N=C/c1cc(Cl)cc(Cl)c1[O-])c1ccccc1O.O=C(N/N=C/c1cc(Cl)cc(Cl)c1[O-])c1ccccc1O.[Zn+2]`, in the test on HOP-92 NSCLC, the GI50 is 0.363 µM. Further, the TGI in the test with HOP-92 NSCLC came out at 4.98 µM; with TK-10 renal, 18.5 µM; with SW-620 colon, 20.9 µM; in the test with SNB-75 CNS, 16.4 µM; with OVCAR-8 ovarian it was 3.38 µM; with SR leukemia, 1.55 µM. The TGI in the test with M14 melanoma worked out at 6.88 µM; with NCI-H226 lung it was 7.61 µM; in the test with ACHN renal, 12.9 µM.
Turning to `S=C1CC(c2ccccc2)Sc2ccccc2N1` (stereo unspecified), the TGI with MCF7 breast, in the test with BT-549 breast, with TK-10 renal, with SNB-75 CNS, in the test on OVCAR-8 ovarian and in the test with SR leukemia was greater than 100 µM throughout. Besides, the TGI with M14 melanoma, in the test with NCI-H226 lung, with MDA-MB-231 breast, in the test with NCI/ADR-RES ovarian, in the test with ACHN renal and in the test on CCRF-CEM leukemia was greater than 100 µM throughout.
Consider `CC(=O)OC/C=C\Cn1nc(Br)c(=O)[nH]c1=O`, for which the TGI in the test on MCF7 breast was determined as 28.5 µM; with BT-549 breast, 22.2 µM; in the test on HOP-92 NSCLC, 27.9 µM; with TK-10 renal, 38.2 µM; in the test on SW-620 colon it was 32.3 µM; with SNB-75 CNS, 29.6 µM. The TGI in the test with OVCAR-8 ovarian amounted to 34.7 µM; in the test with SR leukemia it was 15.6 µM; in the test on M14 melanoma it was 30.9 µM; in the test on NCI-H226 lung it was 30.1 µM; with MDA-MB-231 breast, 43.4 µM; in the test on NCI/ADR-RES ovarian, 56 µM. The TGI turned out to be 23.4 µM with ACHN renal and 24.5 µM in the test with CCRF-CEM leukemia.
`CC(=O)NC(c1nc2cc(C)c(C)cc2[nH]1)c1nc2cc(C)c(C)cc2[nH]1`: the TGI with MCF7 breast was greater than 100 µM; in the test on BT-549 breast, 61.6 µM; with HOP-92 NSCLC, 43.3 µM; in the test with TK-10 renal, 89.1 µM; with SW-620 colon, greater than 100 µM; in the test with SNB-75 CNS, 50.7 µM. Besides, the TGI in the test with OVCAR-8 ovarian is 47.5 µM; in the test on M14 melanoma, greater than 100 µM; in the test with MDA-MB-231 breast it was 76 µM; with NCI/ADR-RES ovarian, 89.2 µM; with ACHN renal it was greater than 100 µM; in the test with CCRF-CEM leukemia, 37 µM.
For `C/C=C/C1=CC(=O)C(O)C1O` (stereo unspecified), the TGI in the test on MCF7 breast is 122 µM; in the test with HOP-92 NSCLC, 66 µM; in the test on SW-620 colon it was 99.3 µM; in the test on SNB-75 CNS, 67.5 µM; in the test on OVCAR-8 ovarian, 79.9 µM; with NCI-H226 lung it was 62.5 µM. In addition, the TGI in the test with HOP-18 NSCLC turned out to be 27.1 µM; in the test with DLD-1 colon it was 122 µM; in the test with NCI/ADR-RES ovarian it was 66.1 µM; in the test with CCRF-CEM leukemia, 103 µM.
As for `CC1CCC2(C(=O)O)CCC3(C)C(=CCC4C5(C)CCC(O)C(C)(C)C5CCC43C)C2C1C` (stereo unspecified), the TGI was 25.6 µM and 43.7 µM with MCF7 breast; 40.5 µM with BT-549 breast; 21.1 µM and 42.6 µM in the test with HOP-92 NSCLC; 43.9 µM with TK-10 renal; 16.9 µM and > 100 µM with SW-620 colon; 16.5 µM and 30.4 µM in the test with SNB-75 CNS. The TGI in the test on OVCAR-8 ovarian was 21 µM and 35.2 µM; with SR leukemia it was 59.8 µM; with M14 melanoma, 4.28 µM; with NCI-H226 lung, 18.7 µM and 37.7 µM; in the test on HOP-18 NSCLC, 34.4 µM; with MDA-MB-231 breast, 26.2 µM. The TGI with DLD-1 colon was 17 µM; with NCI/ADR-RES ovarian, 23.7 µM and 40.7 µM; with CCRF-CEM leukemia, 27.9 µM and > 100 µM. The GI50 is 5.07 µM and 46.9 µM in the test on SW-620 colon; 1.52 µM and 13.3 µM with SNB-75 CNS; 3.59 µM and 16.6 µM with CCRF-CEM leukemia.
With `COc1cccc(/C=N/[N-]C(N)=O)c1[O-].[Ni+2].[OH3+].c1ccc(-c2ccccn2)nc1`, the TGI with HOP-92 NSCLC is 98.1 µM; in the test on SW-620 colon, greater than 100 µM; in the test on SNB-75 CNS, greater than 100 µM; in the test on OVCAR-8 ovarian it was greater than 100 µM; in the test with M14 melanoma, greater than 100 µM; with NCI-H226 lung it was greater than 100 µM. The TGI in the test with ACHN renal and in the test with CCRF-CEM leukemia was greater than 100 µM each time.
Regarding `Cc1[nH]nc(N)c1C(N)=O`, the TGI in the test with TK-10 renal, with SW-620 colon, in the test with SNB-75 CNS, in the test with OVCAR-8 ovarian, in the test with M14 melanoma and with DLD-1 colon was greater than 100 µM in each case. In addition, the TGI with ACHN renal and in the test with CCRF-CEM leukemia was greater than 100 µM each time.
Take `CNC(=O)SCC(N)C(=O)O` (stereo unspecified): the TGI in the test on MCF7 breast, in the test on HOP-92 NSCLC, in the test with SW-620 colon, in the test on SNB-75 CNS, in the test on OVCAR-8 ovarian and in the test on NCI-H226 lung was greater than 100 µM throughout. Besides, the TGI in the test on HOP-18 NSCLC, in the test on DLD-1 colon, in the test on NCI/ADR-RES ovarian and with CCRF-CEM leukemia was greater than 100 µM each time.
Regarding `CCOC(=O)c1c(Cl)nc2ccccc2c1N=[N+]=[N-]`, the TGI was 30.7 µM in the test with BT-549 breast; 59.5 µM in the test on HOP-92 NSCLC; 99.8 µM with TK-10 renal; 35.1 µM with SW-620 colon; greater than 100 µM in the test on SR leukemia; 34.1 µM in the test on M14 melanoma. Moreover, the TGI is greater than 100 µM with NCI-H226 lung, 30.1 µM in the test on MDA-MB-231 breast, greater than 100 µM in the test on ACHN renal and greater than 100 µM in the test with CCRF-CEM leukemia.
As to `OC1CCOc2ccccc21` (stereo unspecified), the TGI in the test with TK-10 renal, in the test with SW-620 colon, in the test on OVCAR-8 ovarian, with SR leukemia, in the test with M14 melanoma and with NCI-H226 lung was greater than 100 µM each time. In addition, the TGI in the test on HOP-18 NSCLC, with DLD-1 colon, in the test with ACHN renal and with CCRF-CEM leukemia was greater than 100 µM each time.

Values taken from PubChem BioAssay (NCI).
